# Reference: PubChem BioAssay AID1259407 (Chemical Carcinogenesis Research Information System (CCRIS), 2018)
# Activity calls are given as the source filed them. The rule behind the calls is not given here.
# System: CCRIS mutagenicity, Ames/micronucleus/aberration tests
# Assay: CCRIS mutagenicity studies
# [1] = Test System: AMES SALMONELLA TYPHIMURIUM, Strain/Indicator: TA98, Metabolic Activation: NONE, Method: STANDARD PLATE
# [2] = Test System: AMES SALMONELLA TYPHIMURIUM, Strain/Indicator: TA100, Metabolic Activation: NONE, Method: PREINCUBATION
# [3] = Test System: AMES SALMONELLA TYPHIMURIUM, Strain/Indicator: TA100, Metabolic Activation: NONE, Method: STANDARD PLATE
# [4] = Test System: AMES SALMONELLA TYPHIMURIUM, Strain/Indicator: TA100, Metabolic Activation: RAT, LIVER, S-9, PCB, Method: PREINCUBATION
smiles,measurement,setting,value
NCc1cccc(CN)c1,mutagenic call,"Test System: AMES SALMONELLA TYPHIMURIUM, Strain/Indicator: TA98, Metabolic Activation: HAMSTER, LIVER, S-9, AROCLOR 1254, Method: STANDARD PLATE",inactive; negative
same,mutagenic call,"Test System: AMES SALMONELLA TYPHIMURIUM, Strain/Indicator: TA98, Metabolic Activation: NONE, Method: PREINCUBATION",inactive; negative
same,mutagenic call,[1],inactive; negative
same,mutagenic call,"Test System: AMES SALMONELLA TYPHIMURIUM, Strain/Indicator: TA98, Metabolic Activation: RAT, LIVER, S-9, AROCLOR 1254, Method: STANDARD PLATE",inactive; negative
same,mutagenic call,"Test System: AMES SALMONELLA TYPHIMURIUM, Strain/Indicator: TA98, Metabolic Activation: RAT, LIVER, S-9, PCB, Method: PREINCUBATION",inactive; negative
same,mutagenic call,"Test System: AMES SALMONELLA TYPHIMURIUM, Strain/Indicator: TA98, Metabolic Activation: RAT, LIVER, S-9, PHENOBARBITAL AND BETA-NAPHTHOFLAVONE, Method: PREINCUBATION",inactive; negative
same,mutagenic call,"Test System: AMES SALMONELLA TYPHIMURIUM, Strain/Indicator: TA100, Metabolic Activation: HAMSTER, LIVER, S-9, AROCLOR 1254, Method: STANDARD PLATE",inactive; negative
same,mutagenic call,[2],inactive; negative
same,mutagenic call,[3],inactive; negative
same,mutagenic call,"Test System: AMES SALMONELLA TYPHIMURIUM, Strain/Indicator: TA100, Metabolic Activation: RAT, LIVER, S-9, AROCLOR 1254, Method: STANDARD PLATE",inactive; negative
same,mutagenic call,[4],inactive; negative
same,mutagenic call,"Test System: AMES SALMONELLA TYPHIMURIUM, Strain/Indicator: TA100, Metabolic Activation: RAT, LIVER, S-9, PHENOBARBITAL AND BETA-NAPHTHOFLAVONE, Method: PREINCUBATION",inactive; negative
same,mutagenic call,"Test System: AMES SALMONELLA TYPHIMURIUM, Strain/Indicator: TA102, Metabolic Activation: NONE, Method: PREINCUBATION",inactive; negative
same,mutagenic call,"Test System: AMES SALMONELLA TYPHIMURIUM, Strain/Indicator: TA102, Metabolic Activation: RAT, LIVER, S-9, SODIUM PHENOBARBITAL AND 5,6-BENZOFLAVONE, Method: PREINCUBATION",inactive; negative
same,mutagenic call,"Test System: AMES SALMONELLA TYPHIMURIUM, Strain/Indicator: TA104, Metabolic Activation: NONE, Method: PREINCUBATION",inactive; negative
same,mutagenic call,"Test System: AMES SALMONELLA TYPHIMURIUM, Strain/Indicator: TA104, Metabolic Activation: RAT, LIVER, S-9, SODIUM PHENOBARBITAL AND 5,6-BENZOFLAVONE, Method: PREINCUBATION",inactive; negative
same,mutagenic call,"Test System: AMES SALMONELLA TYPHIMURIUM, Strain/Indicator: TA1535, Metabolic Activation: HAMSTER, LIVER, S-9, AROCLOR 1254, Method: STANDARD PLATE",inactive; negative
same,mutagenic call,"Test System: AMES SALMONELLA TYPHIMURIUM, Strain/Indicator: TA1535, Metabolic Activation: NONE, Method: PREINCUBATION",inactive; negative
same,mutagenic call,"Test System: AMES SALMONELLA TYPHIMURIUM, Strain/Indicator: TA1535, Metabolic Activation: NONE, Method: STANDARD PLATE",inactive; negative
same,mutagenic call,"Test System: AMES SALMONELLA TYPHIMURIUM, Strain/Indicator: TA1535, Metabolic Activation: RAT, LIVER, S-9, AROCLOR 1254, Method: STANDARD PLATE",inactive; negative
same,mutagenic call,"Test System: AMES SALMONELLA TYPHIMURIUM, Strain/Indicator: TA1535, Metabolic Activation: RAT, LIVER, S-9, PHENOBARBITAL AND BETA-NAPHTHOFLAVONE, Method: PREINCUBATION",inactive; negative
same,mutagenic call,"Test System: AMES SALMONELLA TYPHIMURIUM, Strain/Indicator: TA1537, Metabolic Activation: HAMSTER, LIVER, S-9, AROCLOR 1254, Method: STANDARD PLATE",inactive; negative
same,mutagenic call,"Test System: AMES SALMONELLA TYPHIMURIUM, Strain/Indicator: TA1537, Metabolic Activation: NONE, Method: PREINCUBATION",inactive; negative
same,mutagenic call,"Test System: AMES SALMONELLA TYPHIMURIUM, Strain/Indicator: TA1537, Metabolic Activation: NONE, Method: STANDARD PLATE",inactive; negative
same,mutagenic call,"Test System: AMES SALMONELLA TYPHIMURIUM, Strain/Indicator: TA1537, Metabolic Activation: RAT, LIVER, S-9, AROCLOR 1254, Method: STANDARD PLATE",inactive; negative
same,mutagenic call,"Test System: AMES SALMONELLA TYPHIMURIUM, Strain/Indicator: TA1537, Metabolic Activation: RAT, LIVER, S-9, PHENOBARBITAL AND BETA-NAPHTHOFLAVONE, Method: PREINCUBATION",inactive; negative
same,mutagenic call,"Test System: AMES SALMONELLA TYPHIMURIUM, Strain/Indicator: TA1538, Metabolic Activation: HAMSTER, LIVER, S-9, AROCLOR 1254, Method: STANDARD PLATE",inactive; negative
same,mutagenic call,"Test System: AMES SALMONELLA TYPHIMURIUM, Strain/Indicator: TA1538, Metabolic Activation: NONE, Method: STANDARD PLATE",inactive; negative
same,mutagenic call,"Test System: AMES SALMONELLA TYPHIMURIUM, Strain/Indicator: TA1538, Metabolic Activation: RAT, LIVER, S-9, AROCLOR 1254, Method: STANDARD PLATE",inactive; negative
same,mutagenic call,"Test System: E. COLI, Strain/Indicator: WP2UVRA/PKM101, Metabolic Activation: NONE, Method: PREINCUBATION",inactive; negative
same,mutagenic call,"Test System: E. COLI, Strain/Indicator: WP2UVRA/PKM101, Metabolic Activation: RAT, LIVER, S-9, PHENOBARBITAL AND BETA-NAPHTHOFLAVONE, Method: PREINCUBATION",inactive; negative
same,mutagenic call,"Test System: E. COLI, Strain/Indicator: WP2UVRA/PKM101, Metabolic Activation: RAT, LIVER, S-9, SODIUM PHENOBARBITAL AND 5,6-BENZOFLAVONE, Method: PREINCUBATION",inactive; negative
same,mutagenic call,"Test System: E. COLI, Strain/Indicator: WP2UVRA, Metabolic Activation: NONE, Method: PREINCUBATION",inactive; negative
same,mutagenic call,"Test System: E. COLI, Strain/Indicator: WP2UVRA, Metabolic Activation: RAT, LIVER, S-9, PHENOBARBITAL AND BETA-NAPHTHOFLAVONE, Method: PREINCUBATION",inactive; negative
same,mutagenic call,"Test System: E. COLI, Strain/Indicator: WP2UVRA, Metabolic Activation: RAT, LIVER, S-9, SODIUM PHENOBARBITAL AND 5,6-BENZOFLAVONE, Method: PREINCUBATION",inactive; negative
same,mutagenic call,"Test System: MOUSE LYMPHOMA, Strain/Indicator: L5178Y (TK+/TK-), Metabolic Activation: NONE, Method: SUSPENSION/PLATE",inactive; negative. reevaluation of results: negative
same,mutagenic call,"Test System: MOUSE LYMPHOMA, Strain/Indicator: L5178Y (TK+/TK-), Metabolic Activation: RAT, LIVER, S-9, AROCLOR 1254, Method: SUSPENSION/PLATE",inactive; negative. reevaluation of results: negative
Nc1ccc2ncsc2c1,mutagenic call,[2],inactive; negative
same,mutagenic call,"Test System: AMES SALMONELLA TYPHIMURIUM, Strain/Indicator: TA100, Metabolic Activation: RAT LIVER S-9, PHENOBARBITAL AND 5,6-BENZOFLAVONE, Method: PREINCUBATION",inactive; negative
same,mutagenic call,"Test System: AMES SALMONELLA TYPHIMURIUM, Strain/Indicator: YG1029, Metabolic Activation: NONE, Method: PREINCUBATION",inactive; negative
same,mutagenic call,"Test System: AMES SALMONELLA TYPHIMURIUM, Strain/Indicator: YG1029, Metabolic Activation: RAT LIVER S-9, PHENOBARBITAL AND 5,6-BENZOFLAVONE, Method: PREINCUBATION",active; positive
Cc1cncc(C)c1.Cc1cncc(C)c1.[Cl][Pt][Cl],mutagenic call,"Test System: AMES SALMONELLA TYPHIMURIUM, Strain/Indicator: TA92, Metabolic Activation: NONE, Method: STANDARD PLATE",inactive; negative
same,mutagenic call,[1],active; positive
same,mutagenic call,[3],inactive; negative
same,mutagenic call,"Test System: AMES SALMONELLA TYPHIMURIUM, Strain/Indicator: TA2410, Metabolic Activation: NONE, Method: STANDARD PLATE",active; positive
Cc1ccc(S(=O)(=O)OC[C@@H]2CO2)cc1,mutagenic call,[2],active; positive
same,mutagenic call,[3],active; positive
same,mutagenic call,[4],active; positive
CC(C)Oc1ccccc1OC(=O)N(C)N=O,mutagenic call,"End Point: In vitro chromosomal aberrations, Test System: Chinese hamster ovary (CHO-W8) cells, Metabolic Activation: None",active; positive (structural changes)
same,mutagenic call,"Test System: CHINESE HAMSTER V-79, Strain/Indicator: V-79 (HPRT)/6-THIOGUANINE, Metabolic Activation: NONE",active; positive
same,mutagenic call,"Test System: E. COLI WP2, Strain/Indicator: WP2, Metabolic Activation: NONE, Method: STANDARD PLATE",active; positive
CCCCCCCCCCCCOC[N+](C)(C)Cc1ccccc1,mutagenic call,"Test System: BACILLUS SUBTILIS, Strain/Indicator: H17/REC, Metabolic Activation: NONE, Method: STANDARD PLATE",inactive; negative
same,mutagenic call,"Test System: BACILLUS SUBTILIS, Strain/Indicator: M45, Metabolic Activation: NONE, Method: STANDARD PLATE",inactive; negative
C1CC[CH]([Sn]([CH]2CCCCC2)[CH]2CCCCC2)CC1,mutagenic call,"Test System: UDS HUMAN PERIPHERAL BLOOD LYMPHOCYTES, Strain/Indicator: THY INCORP, Metabolic Activation: NONE, Method: LIQUID SCINTILLATION",inactive; negative
same,mutagenic call,"Test System: UDS HUMAN PERIPHERAL BLOOD LYMPHOCYTES, Strain/Indicator: THY INCORP, Metabolic Activation: RAT, LIVER, S-9, PHENOBARBITAL AND BETA-NAPHTHOFLAVONE, Method: LIQUID SCINTILLATION",inactive; negative
BrCc1cccc2c1-c1cccc3cccc-2c13,mutagenic call,[1],active; positive
same,mutagenic call,[3],active; positive
